Key:
mature hCO = test: RNA-sequencing of mature hCO treated with compounds; format: cell-based, human; conditions: 2 days; for genes regulated (RNA-seq): 3 μM compound 3, 0.3 μM compound 63, 1 μM compound 65
Description: For each experiment 15-20 hCOs were pooled, snap frozen and RNA extracted using Trizol (ThermoFisher Scientific), treated with DNAse (Qiagen) and purified using RNeasy Minielute Cleanup Kit (Qiagen). The quality of the RNA was assessed by Fragment Analyzer (Advances Analytical Technologies) and samples with RNA quality number >8.9 were used for library preparation. RNA samples were processed with Illumina TruSeq Stranded mRNA Library prep kit selecting for poly(A) tailed RNA following the manufacturer's recommendations. Libraries were quantified with Qubit HS (ThermoFisher) and Fragment Analyzer (Advances Analytical Technologies) adjusted to the appropriate concentration for sequencing. Indexed libraries were pooled and sequenced at a final concentration of 1.8 pmol/L on an Illumina NextSeq 500 high-output run using paired-end chemistry with 75 bp read length.
The sequencing data was demultiplexed using Illumina bc12fastq2-v2.17. The quality of the reads was assessed thanks to FastQC (https://www.bioinformatics.babraham.ac.uk/projects/fastqc/). The reads were then processed and mapped to the human genome hg38 using the Bcbio-nextgen framework version 1.0.3 (https://github.com/chapmanb/bcbio-nextgen). The aligner used was HISAT2 2.0.5. For sample quality assessment, raw counts were normalised with DESeq2 regularized logarithm function. A principal component analysis (PCA) was performed using R v 3.3.1(Team, 2015) and led to the detection of a batch effect among samples which was corrected using the removeBatchEffect function from Limma v3.30.13. The identification of the differentially expressed genes between treated and non-treated samples was performed using DESeq2 v1.14.1 (Love et al., 2014) in R v 3.3.1 (Team, 2015) using the design ˜Batch+Compound to account for the batch effect directly. A FDR of 0.1 was defined to call for differentially expressed genes. The mechanistic networks in were generated using IPA upstream analysis (QIAGEN Inc., https://www.qiagenbioinformatics.com/products/ingenuity-pathway-analysis). Gene Ontology (GO) annotations enrichment analyses were performed with GOSeq v1.28.0 (Young et al., 2010), were generated in R using ggplot2 (http://ggplot2.tidyverse.org/index.html) and package GOSemSim v2.2.0 (Yu et al., 2010) for term similarities.
In order to determine the biological processes driving the pro-proliferative effects of our hit compounds, we performed RNA-sequencing (RNA-seq) and single organoid quantitative proteomics (FIG. 4A). These analyses were performed on hCOs treated with compounds 3, 63 and 65 at concentrations of 3 μM, 0.3 μM and 1 μM, respectively. RNA-seq for hCO treated with compounds 3 and 65 clustered distinctly in principal component analysis (FIG. 4B) and regulated a total of 239 and 207 genes (FIG. 9A), respectively.

immature hCOs = test: immature hCO screen, Ki-67 intensity (proliferation); format: cell-based, human; conditions: for proliferation in immature hCO (Ki-67 intensity): 0.1, 1 and 10 μM, 2 days; for hCO Screen Max Effect (%): maximum over 0.1, 1, 10 uM
Description: Heart-dyno culture inserts were fabricated using standard SU-8 photolithography and PDMS molding practices (Mills et al., 2017a). CTRL medium: α-MEM GlutaMAX (ThermoFisher Scientific), 10% fetal bovine serum (FBS) (ThermoFisher Scientific), 200 μM L-ascorbic acid 2-phosphate sesquimagnesium salt hydrate (Sigma) and 1% Penicillin/Streptomycin (ThermoFisher Scientific). For each hCO, 5×10^4 cardiac cells in CTRL medium were mixed with collagen I to make a 3.5 μL final solution containing 2.6 mg/mL collagen I and 9% Matrigel. The bovine acid-solubilized collagen I (Devro) was first salt balanced and pH neutralized using 10×DMEM and 0.1 M NaOH, respectively, prior to mixing with Matrigel and cells. The mixture was prepared on ice and pipetted into the Heart-Dyno. The Heart-Dyno was then centrifuged at 100×g for 10 s to ensure the hCO form halfway up the posts. The mixture was then gelled at 37° C. for 60 min prior to the addition of CTRL medium to cover the tissues (150 μL/hCO). The Heart-Dyno design facilitates the self-formation of tissues around in-built PDMS exercise poles (designed to deform ˜0.07 μm/μN). The medium was changed every 2-3 days (150 μL/hCO).
hCOs were cultured in CTRL medium for formation for 5 days and then either kept in CTRL medium culture or changed to maturation medium (Mills et al., 2017a) comprising DMEM without glucose, glutamine and phenol red (ThermoFisher Scientific) supplemented with 4% […](without insulin) (ThermoFisher Scientific), 1% GlutaMAX (ThermoFisher Scientific), 200 μM L-ascorbic acid 2-phosphate sesquimagnesium salt hydrate and 1% Penicillin/Streptomycin (ThermoFisher Scientific), 1 mmol/L glucose and 100 μmon palmitic acid (conjugated to bovine serum albumin within B27 by incubating for 2h at 37° C., Sigma) with changes every 2-3 days.
Whole-Mount Immunostaining hCOs were fixed for 60 min with 1% paraformaldehyde (Sigma) at room temperature and washed 3× with PBS, after which they were incubated with primary antibodies (see Star Methods Table) in Blocking Buffer, 5% FBS and 0.2% Triton-X-100 (Sigma) in PBS overnight at 4° C. Cells were then washed in Blocking Buffer 2× for 2 h and subsequently incubated with secondary antibodies (see Star Methods Table) and Hoechst33342 (1:1000) overnight at 4° C. They were washed in Blocking Buffer 2× for 2 h and imaged in situ or mounted on microscope slides using Fluoromount-G (Southern Biotech).
For screening hCOs were imaged using a Leica DMi8 high content imaging microscope for in situ imaging. Custom batch processing files were written in Matlab R2013a (Mathworks) to remove the background, calculate the image intensity, and export the batch data to an Excel (Microsoft) spreadsheet.
The compound library included 5,000 biologically annotated pre-clinical, clinical, and tool compounds. They were selected based on a combination of criteria including balancing the number of external/internal compounds, diversity of annotated targets to cover greater than 1500 biological targets, and known targets associated with cell proliferation. […] Both negative vehicle (DMSO) and positive (CHIR99021) controls were included on each plate in each experiment (FIG. 2B,C).

[1] = pharmacokinetic properties in vivo

Row | Compound | network significantly regulated (network analysis of RNA-seq) (mature hCO) | transcription of cell cycle controllers PLK1, CCNB2, CCND1, CCNA2 and FOXM1 (mature hCO; 3 μM) | genes regulated (RNA-seq) (mature hCO) | hCO Screen 0.1 uM Prolif Activation Ki-67 (%) (immature hCOs) | hCO Screen 1 uM Prolif Activation Ki-67 (%) (immature hCOs) | hCO Screen 10 uM Prolif Activation Ki-67 (%) (immature hCOs) | proliferation in immature hCO (Ki-67 intensity) (immature hCOs) | hCO Screen Max Effect (%) (immature hCOs) | pharmacokinetic properties [1] | mevalonate pathway enzymes SQLE, HMGCS1 and CYP51A1 (mature hCO; 1 μM) | networks regulated based on RNA-seq data (gene ontologies) (mature hCO; 1 μM) | transcription of CDKN2B (p15) (mature hCO; 1 μM)
1 | Cc1ccc(NC(=O)c2ccnc(N3CCOCC3)c2)cc1Nc1ccnc(N2CC(C)OC(C)C2)n1 (centres unmarked) [compound 3] | MAPK14 (p38α) network | upregulated | 239 genes | 299% | 23% | 111% | induced proliferation | 299% | poor | – | – | –
2 | Cc1cc(Oc2ccnc(Nc3ccc(S(N)(=O)=O)cc3)c2)c(-c2ccccn2)nc1C [compound 65] | TGFβ receptor (TGFβR) and bone morphogenic protein receptor (BMPR) networks | – | 207 genes | −38% | 96% | 121% | induced proliferation | 121% | poor | activated | an extracellular matrix network and a cholesterol biosynthesis network | inhibited
